According to PMC9405123, “Design, Synthesis and Mechanistic Studies of Novel Isatin-Pyrazole Hydrazone Conjugates as Selective and Potent Bacterial MetAP Inhibitors” (Antibiotics, 2022):
≈ marks a conversion by molar mass, not a printed value.

Key:
[1] = test system: B. subtilis; test: Growth inhibition screening (broth dilution); assay type: cell-based, Bacillus subtilis
Method in brief: (§1)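 NCCLS broth dilution in nutrient broth with compounds from DMSO at a final 250 µg/mL. About 2.5 × 10^5 cells/mL were inoculated and incubated overnight at 37 °C. Growth was measured as turbidity at 590 nm.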

[2] = test system: B. subtilis; test: Minimum inhibitory concentration (broth dilution); assay type: cell-based; settings: Bacillus subtilis, alone
[3] = test system: P. aeruginosa; test: Growth kinetics; assay type: cell-based, Pseudomonas aeruginosa
Experimental: Bacterial strains were tested as mentioned in Habib et al.. Briefly, ½ MIC, MIC and 2MIC values of PS9 were taken to assess the growth of bacterial strains whereas untreated cells and media were taken as positive and negative control, respectively.

[4] = test system: LG20; test: MIC on environmental MDR isolate (microdilution)
[5] = test system: LG24; test: MIC on environmental MDR isolate (microdilution); settings: Escherichia coli
[6] = test system: P. aeruginosa; test: Minimum bactericidal concentration; assay type: cell-based, Pseudomonas aeruginosa; settings: Pseudomonas aeruginosa
[7] = test system: JST63; test: MIC on environmental MDR isolate (microdilution)
[8] = test system: K. pneumoniae; test: Growth inhibition screening (broth dilution); assay type: cell-based, Klebsiella pneumonia
Method in brief: as §1

[9] = test system: JST68; test: MBC on environmental MDR isolate; settings: Escherichia coli
[10] = test system: P. aeruginosa PAO1; test: In vivo antibacterial efficacy in infected larvae; settings: P. aeruginosa infected larvae (1.5 × 10^9 CFU/mL); PS9 1000 μg/mL; 48 and 72 h
[11] = test system: S. aureus; test: Minimum bactericidal concentration; assay type: cell-based, Staphylococcus aureus
[12] = test system: HK32; test: MBC on environmental MDR isolate; settings: Enterobacter cloacae
[13] = target: T1, HsMetAP1b (Homo sapiens, UniProt P53582); test: MetAP enzyme inhibition, Morrison Ki (Met-AMC fluorescence); assay type: biochemical, H. sapiens; settings: Morrison Ki method
T1 construct: made in house

[14] = test system: LG33; test: MIC on environmental MDR isolate (microdilution); settings: Enterobacter
[15] = test system: HK91; test: MBC on environmental MDR isolate; settings: Ralstonia
[16] = test system: E. coli; test: Time-kill curve assay; assay type: cell-based, Escherichia coli
Experimental: (§2) A time–kill curve study was performed against bacterial strains (E. coli, E. faecalis, K. pneumonia and P. aeruginosa) to determine whether compound PS9 is bactericidal or bacteriostatic. MIC, 2MIC and 4MIC concentrations were employed for the time–kill assay as explained by Ali et al.. Untreated bacterial cells were used as a control. 100 µL aliquot was taken from each flask at regular intervals. An aliquot was further diluted in phosphate buffer saline solution and from each concentration 50 µL aliquot was inoculated on a nutrient agar plate and spread. Colonies were counted after the incubation of the plate at 37 °C. For each strain, the average (mean) colony count data (log10 CFU/mL) was plotted against time.

[17] = test system: E. coli; test: Minimum bactericidal concentration; assay type: cell-based, Escherichia coli
[18] = test system: E. faecalis; test: Minimum inhibitory concentration (broth dilution); assay type: cell-based; settings: Enterococcus faecalis, alone
[19] = test system: K. pneumoniae; test: Combination study with AMP or CIP
[20] = test system: LG71; test: MIC on environmental MDR isolate (microdilution); settings: isolate LG71 Enterobacter cloacae
[21] = test system: HK1; test: MBC on environmental MDR isolate
[22] = test system: E. faecalis; test: Time-kill curve assay; assay type: cell-based, Enterococcus faecalis
Experimental: as §2

[23] = test system: E. coli; test: Growth inhibition screening (broth dilution); assay type: cell-based, Escherichia coli
Method in brief: as §1

[24] = test system: LG1; test: MBC on environmental MDR isolate
[25] = test system: HK91; test: MIC on environmental MDR isolate (microdilution); settings: Ralstonia
[26] = test system: HK41; test: MIC on environmental MDR isolate (microdilution); settings: Enterobacter cloacae
[27] = test system: JST78; test: MIC on environmental MDR isolate (microdilution); settings: Escherichia coli
[28] = test system: HK32; test: MIC on environmental MDR isolate (microdilution); settings: Enterobacter cloacae
[29] = test system: S. aureus 33,591; test: In vivo antibacterial efficacy in infected larvae; settings: PS9 1000 μg/mL 30 min post-infection, up to 72 h
[30] = target: EfMetAP1a (Enterococcus faecalis, UniProt Q832M5); test: MetAP enzyme inhibition, Morrison Ki (Met-AMC fluorescence); assay type: biochemical; settings: Morrison Ki method
EfMetAP1a, sequence (Q832M5 entry or part of it): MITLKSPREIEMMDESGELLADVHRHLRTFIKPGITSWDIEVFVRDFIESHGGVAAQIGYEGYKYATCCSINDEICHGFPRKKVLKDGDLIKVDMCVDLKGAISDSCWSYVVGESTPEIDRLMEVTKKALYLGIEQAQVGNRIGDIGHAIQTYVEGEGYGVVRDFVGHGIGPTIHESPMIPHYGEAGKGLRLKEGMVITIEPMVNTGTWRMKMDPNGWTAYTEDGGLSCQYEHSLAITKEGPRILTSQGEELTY

[31] = test system: LG1; test: MIC on environmental MDR isolate (microdilution)
[32] = test system: S. aureus; test: Minimum inhibitory concentration (broth dilution); assay type: cell-based; settings: Staphylococcus aureus, alone

With `O=C1Nc2ccc(F)cc2/C1=N\NC(=O)c1cc(-c2cccc(Br)c2)n[nH]1` [PS9, (E)-3-(3-Bromophenyl)-N′-(5-Fluoro-2-Oxoindolin-3-Ylidene)-1H-Pyrazole-5-Carbohydrazide] the inhibition at 250 µg/mL ([1]; Bacillus subtilis) was no less than 94%, the “% Growth Inhibition at 250 µg/mL” value ([1]; listed as C00009) was 100% and the MIC [2] was 32 µg/mL (≈ 74.7 µM). The growth ([3]; 2MIC and MIC) was “no growth observed up to 24 h”, the “time after inoculation at which log phase was observed” value ([3]; ½ MIC) was 8 h and the MIC ([4]; Enterobacter, isolate LG20 Enterobacter sp.) was less than 1 µg/mL. For the same compound, the “MIC lower than AMP and CTX” value ([4]; isolate LG20) was 32 times, the MIC [5] was greater than 1020 µg/mL and the MBC [6] was 16 µg/mL (≈ 37.4 µM). For the same compound, the MIC [7] was 1000 µg/mL (≈ 2340 µM), the inhibition at 250 µg/mL ([8]; Klebsiella pneumoniae) was no less than 94% and the “% Growth Inhibition at 250 µg/mL” value ([8]; listed as C00009) was 94%. The MBC [9] was 256 µg/mL (≈ 598 µM), the “effect on death of infected larvae” value [10] was “small protective effect” and the “MBC/MIC Ratio (R*)” value [11] was 8. The MBC ([11]; Staphylococcus aureus) was 256 µg/mL (≈ 598 µM), the MBC [12] was 64 µg/mL (≈ 149 µM) and the Ki [13] was 632 ± 16.3 µM. The MIC [14] was 1000 µg/mL (≈ 2340 µM), the MBC [15] was 16 µg/mL (≈ 37.4 µM) and the “killing (log10 CFU/mL with time)” value ([16]; 4MIC, after 16 h) was “significant eradication”. For the same compound, the “killing (log10 CFU/mL with time)” value ([16]; MIC, till 16 h) was “no 100% eradication”, the “MBC/MIC Ratio (R*)” value [17] was 4 and the MBC ([17]; Escherichia coli) was 64 µg/mL (≈ 149 µM). For the same compound, the MIC [18] was 8 µg/mL (≈ 18.7 µM), the “MIC in Combination” value ([19]; combination PS9 + AMP) was 2 µg/mL and the “MIC in Combination” value ([19]; combination PS9 + CIP) was 4 µg/mL. The FICI ([19]; combination with AMP) was 0.50, the FICI ([19]; combination with CIP) was 0.50 and the MIC ([20]; Enterobacter cloacae) was 1020 µg/mL (≈ 2390 µM). The MIC [20] was greater than 1024 µg/mL, the MBC [21] was 512 µg/mL (≈ 1200 µM) and the “killing (log10 CFU/mL with time)” value ([22]; 4MIC, after 16 h) was “significant eradication”. The “killing (log10 CFU/mL with time)” value ([22]; MIC, till 16 h) was “no 100% eradication”, the inhibition at 250 µg/mL ([23]; Escherichia coli) was no less than 94% and the “% Growth Inhibition at 250 µg/mL” value ([23]; listed as C00009) was 100%. It also gave an MBC [24] of 128 µg/mL (≈ 299 µM), an MIC [25] of 2 µg/mL (≈ 4.67 µM) and an MIC [26] of 32 µg/mL (≈ 74.7 µM). For the same compound, the MIC [27] was 1000 µg/mL (≈ 2340 µM), the MIC [28] was 64 µg/mL (≈ 149 µM) and the “effect on death of infected larvae” value [29] was “does not delay this”. It also gave a Ki [30] of 6.93 ± 0.45 µM, an MIC [31] of 32 µg/mL (≈ 74.7 µM) and an MIC [32] of 32 µg/mL (≈ 74.7 µM).
